Assay results as given in patent publication US20110098296A1, “Thiazole And Oxazole Kinase Inhibitors” (priority 2007, published 2011).

Legend:
EGFR = biological target: T1, EGFR (Homo sapiens, UniProt P00533); test: EGFR substrate phosphorylation assay (HTRF); assay type: biochemical; settings: Method (A): Enzyme Mix incubated with compound at 20° C. for 1 hr, reaction started by adding Substrate Mix
T1 construct: made in house; host or cells: baculovirus expression system
Method in brief: (§1)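 Baculovirus-expressed kinase (0.8 nM EGFR or 10 nM ErbB2 in enzyme mix) with Peptide C 0.8 μM and ATP 20 μM (substrate-mix levels), MOPS pH 7.5, MnCl2; 90 min, 20 °C, HTRF anti-phosphotyrosine. Method A adds 1 h enzyme–compound preincubation; B none. pIC50, final compound 0.00027–47.6 μM.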

ErbB2 = biological target: T2, ErbB2 (Homo sapiens, UniProt P04626); test: ErbB-2 substrate phosphorylation assay (HTRF); assay type: biochemical; settings: Method (A): Enzyme Mix incubated with compound at 20° C. for 1 hr, reaction started by adding Substrate Mix
T2 construct: made in house; host or cells: baculovirus expression system
Method in brief: as §1

HN5 tumor cells = test: Method C: Cell Growth Inhibition Assay (CellTiter-Glo), HN5; assay type: cell-based; settings: Homo sapiens, 72 h, 3 days, 4-parameter fit
Method in brief: (§2)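 500 cells/well; next-day compound, 1:3 serial dilutions, 0.2% DMSO final; 3 d, 37° C, 5% CO2. Readout: CellTiter-Glo luminescence (total ATP as cell-number surrogate). IC50 from 4-parameter fit of % growth inhibition vs vehicle.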

BT474 tumor cells = test: Method C: Cell Growth Inhibition Assay (CellTiter-Glo), BT474; assay type: cell-based; settings: Homo sapiens, BT-474, 72 h, 3 days, 4-parameter fit
Colo205 tumor cells = test: Method C: Cell Growth Inhibition Assay (CellTiter-Glo), Colo205; assay type: cell-based; settings: Homo sapiens, COLO 205, 72 h, 3 days, 4-parameter fit
Method in brief: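 Cells were seeded at 500 per well and dosed the next day with nine serial 1:3 compound dilutions (0.2% DMSO final), then grown 3 days at 37° C, 5% CO2. ATP was measured by CellTiter-Glo luminescence, and IC50 was interpolated by 4-parameter fit of percent inhibition versus DMSO controls.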

SK-MEL-28 tumor cells = test: Method C: Cell Growth Inhibition Assay (CellTiter-Glo), SK-MEL-28; assay type: cell-based; settings: Homo sapiens, SK-MEL-28, 72 h, 3 days, 4-parameter fit
Method in brief: as §2

A375P F11s tumor cells = test: Method C: Cell Growth Inhibition Assay (CellTiter-Glo), A375P F11s; assay type: cell-based; settings: Homo sapiens, 72 h, 3 days, 4-parameter fit
Description: (§3) Human breast tumor cells (BT474) were cultured in RPMI (Mediatech 50-011-PB), containing 10% FBS (JRH Biosciences 12176) and 1% penicillin-streptomycin (Invitrogen 15140). Human head and neck tumor cells (HN5) were cultured in high glucose DMEM (Mediatech 50-013-PB) containing 10% FBS and 1% penicillin-streptomycin. Human colon tumor cells (Colo205) were cultured in RPMI (Mediatech 50-020-PB) containing 10% FBS and 1% penicillin-streptomycin. Human melanoma cancer cells (SK-MEL-28) were cultured in EMEM with nonessential amino acids (Mediatech 50-011-PB) containing 10% FBS, 1% sodium pyruvate (JT Baker 3354-04), and 1% penicillin-streptomycin. Human melanoma cancer cells (A375P F11s) were cultured in RPMI (Mediatech 50-020-PB) containing 10% FBS, 1% sodium pyruvate, and 1% penicillin-streptomycin. Human colon cancer cells (HT-29) were cultured in high glucose DMEM (Mediatech 50-013-PB) containing 10% FBS and 1% penicillin-streptomycin. Human melanoma cancer cells (SK-MEL-3) were cultured in McCoy's 5A (50-025-PB) containing 15% FBS, and 1% penicillin-streptomycin. All cell lines were maintained at 37° C. in a humidified 5% CO2, 95% air incubator. Cells were harvested using trypsin/EDTA (Invitrogen 25200), counted using an haemocytometer, and plated. For 96-well assays (using white full-area NUNC plates cat. #136102), cells were plated in 105 μL at the following densities (cells/well): HN5, 500; Colo205, 500; SK-MEL-28, 500; A375P-F11s, 500; HT-29, 500; SK-MEL-3, 500; and BT474, 3000. For 384-well assays (white full-area NUNC plates, cat. #781080), cells were plated in 48 μL at the following densities (cells/well): HN5, 500; Colo205, 500; SK-MEL-28, 500; A375P-F11s, 500; HT29, 500; SK-MEL-3, 500; and BT474, 2000.
(§4) The next day, compounds were diluted as follow: For 96-well assays, 13.5 μL of compound in DMSO were diluted using nine (9) serial 1:3 dilutions of 4.5 μL in 9 μL of DMSO. Medium (270 μl/well of RPMI with 10% FBS and 1% penicillin-streptomycin) was added to the plates. Aliquots (7 μl) were added to cells in the final assay giving a final DMSO concentration of 0.2%. For 384-well assays, 15 μL of compound in DMSO were diluted using nine (9) serial 1:3 dilutions of 5 μL in 10 μL of DMSO, followed by a further dilution of 5 μL of compound with 95 μL of medium, of which 2 μL were added to cells in the final assay giving a final DMSO concentration of 0.2%. Cells were incubated at 37° C., 5% CO2 for 3 days.
(§5) Total ATP was measured (as a surrogate estimate of cell number) using CellTiter-Glo® reagent (Promega G7571). Briefly, plates were removed from the incubator and allowed to equilibrate to room temperature for 30 minutes. CellTiter-Glo® (25 μL or 55 μL for 384-well or 96-well assays, respectively) reagent was added to each well and plates were shaken on an orbital plate shaker for 2 mins. Plates were incubated without shaking for a further 30 mins and read on an LJL Analyst GT reader in luminometer mode with an integration time of 0.5 seconds per well. Percent inhibition of cell growth was calculated relative to DMSO vehicle-treated control wells. Concentration of compound required to give 50% inhibition of vehicle-treated control cell growth (IC50) was interpolated using a 4-parameter fit for determining IC50 using the following equation: Y=A+((B−A)/(1+((C/X)̂D))) where X=IC50.

HT-29 tumor cells = test: Method C: Cell Growth Inhibition Assay (CellTiter-Glo), HT-29; assay type: cell-based; settings: Homo sapiens, HT-29, 72 h, 3 days, 4-parameter fit
Description: as §3, §4, §5

SK-MEL-3 tumor cells = test: Method C: Cell Growth Inhibition Assay (CellTiter-Glo), SK-MEL-3; assay type: cell-based; settings: Homo sapiens, SK-MEL3, 72 h, 3 days, 4-parameter fit
Description: as §3, §4, §5

T1 sequence (P00533 25-1210): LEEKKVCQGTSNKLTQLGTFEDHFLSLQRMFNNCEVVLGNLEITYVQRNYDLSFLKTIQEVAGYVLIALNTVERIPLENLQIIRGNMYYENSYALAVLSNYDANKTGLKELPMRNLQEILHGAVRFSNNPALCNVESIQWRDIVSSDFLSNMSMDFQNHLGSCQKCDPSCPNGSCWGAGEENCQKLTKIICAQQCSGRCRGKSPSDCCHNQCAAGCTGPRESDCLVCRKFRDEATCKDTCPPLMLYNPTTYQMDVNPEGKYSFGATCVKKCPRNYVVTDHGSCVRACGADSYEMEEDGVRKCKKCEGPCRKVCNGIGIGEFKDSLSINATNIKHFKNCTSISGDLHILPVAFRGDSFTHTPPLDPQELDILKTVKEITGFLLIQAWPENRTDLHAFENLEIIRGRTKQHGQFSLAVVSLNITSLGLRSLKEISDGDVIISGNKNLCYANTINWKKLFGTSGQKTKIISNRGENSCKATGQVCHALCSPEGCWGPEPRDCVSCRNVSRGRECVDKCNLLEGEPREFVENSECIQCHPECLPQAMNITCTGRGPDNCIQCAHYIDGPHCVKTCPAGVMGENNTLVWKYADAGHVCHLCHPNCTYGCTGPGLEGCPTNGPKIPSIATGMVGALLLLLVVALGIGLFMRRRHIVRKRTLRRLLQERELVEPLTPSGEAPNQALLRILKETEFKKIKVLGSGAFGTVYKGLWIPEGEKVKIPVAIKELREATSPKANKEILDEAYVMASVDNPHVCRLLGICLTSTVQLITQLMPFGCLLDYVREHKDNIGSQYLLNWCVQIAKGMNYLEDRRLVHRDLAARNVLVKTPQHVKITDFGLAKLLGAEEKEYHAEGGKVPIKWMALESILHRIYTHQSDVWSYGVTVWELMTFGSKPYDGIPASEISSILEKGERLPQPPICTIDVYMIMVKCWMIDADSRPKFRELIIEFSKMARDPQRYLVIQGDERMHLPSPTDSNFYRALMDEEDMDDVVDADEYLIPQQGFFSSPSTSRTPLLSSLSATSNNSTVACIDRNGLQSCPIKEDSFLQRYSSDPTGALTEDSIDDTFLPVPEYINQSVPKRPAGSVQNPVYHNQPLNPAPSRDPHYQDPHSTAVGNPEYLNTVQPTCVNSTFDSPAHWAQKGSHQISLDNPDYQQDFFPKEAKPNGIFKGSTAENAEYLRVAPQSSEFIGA
T2 sequence (P04626 23-1255): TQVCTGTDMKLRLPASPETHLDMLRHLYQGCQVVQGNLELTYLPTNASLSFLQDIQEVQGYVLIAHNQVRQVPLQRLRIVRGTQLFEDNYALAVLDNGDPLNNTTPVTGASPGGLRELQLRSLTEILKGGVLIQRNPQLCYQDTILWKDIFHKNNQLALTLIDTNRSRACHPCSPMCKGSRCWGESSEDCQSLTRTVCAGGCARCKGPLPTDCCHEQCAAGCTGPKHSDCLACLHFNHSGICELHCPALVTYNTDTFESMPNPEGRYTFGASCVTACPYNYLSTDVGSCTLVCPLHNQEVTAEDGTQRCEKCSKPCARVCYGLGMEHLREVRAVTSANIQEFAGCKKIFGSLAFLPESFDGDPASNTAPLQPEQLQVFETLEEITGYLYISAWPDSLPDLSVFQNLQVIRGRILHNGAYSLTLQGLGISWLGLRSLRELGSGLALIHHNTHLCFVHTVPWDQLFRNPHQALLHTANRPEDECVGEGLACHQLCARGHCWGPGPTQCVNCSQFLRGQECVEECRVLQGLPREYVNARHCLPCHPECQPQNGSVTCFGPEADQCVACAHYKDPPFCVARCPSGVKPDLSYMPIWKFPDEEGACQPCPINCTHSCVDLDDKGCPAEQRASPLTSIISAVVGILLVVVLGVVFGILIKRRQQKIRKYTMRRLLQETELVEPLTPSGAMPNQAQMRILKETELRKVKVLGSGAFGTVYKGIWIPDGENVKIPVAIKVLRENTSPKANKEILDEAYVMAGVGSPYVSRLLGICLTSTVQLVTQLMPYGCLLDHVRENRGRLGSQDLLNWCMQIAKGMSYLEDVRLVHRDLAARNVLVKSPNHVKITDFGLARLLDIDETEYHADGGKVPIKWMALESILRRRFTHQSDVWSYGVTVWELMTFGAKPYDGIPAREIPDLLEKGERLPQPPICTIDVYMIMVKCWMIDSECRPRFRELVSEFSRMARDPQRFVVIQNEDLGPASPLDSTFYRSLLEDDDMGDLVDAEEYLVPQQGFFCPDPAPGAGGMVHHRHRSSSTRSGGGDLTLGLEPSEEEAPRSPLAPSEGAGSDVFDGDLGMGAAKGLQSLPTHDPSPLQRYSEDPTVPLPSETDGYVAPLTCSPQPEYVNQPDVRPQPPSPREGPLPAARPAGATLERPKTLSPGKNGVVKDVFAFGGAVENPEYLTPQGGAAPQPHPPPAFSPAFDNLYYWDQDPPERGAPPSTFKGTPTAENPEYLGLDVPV

| SMILES | IC50 (EGFR) [nM] | IC50 (ErbB2) [nM] | IC50 (HN5 tumor cells) [nM] | IC50 (BT474 tumor cells) [nM] | IC50 (Colo205 tumor cells) [nM] | IC50 (SK-MEL-28 tumor cells) [nM] | IC50 (A375P F11s tumor cells) [nM] | IC50 (HT-29 tumor cells) [nM] | IC50 (SK-MEL-3 tumor cells) [nM] |
| --- | --- | --- | --- | --- | --- | --- | --- | --- | --- |
| CN(C)CCOc1ccc(Nc2nccc(-c3sc(N(C)C)nc3-c3cccc(NC(=O)c4c(F)cccc4F)c3)n2)cc1 [Example 36, N-[3-(2-(Dimethylamino)-5-{2-[(4-{[2-(dimethylamino)ethyl]oxy}phenyl)amino]-4-pyrimidinyl}-1,3-thiazol-4-yl)phenyl]-2,6-difluorobenzamide] | < 100 | < 100 | < 100 | < 100 | 100 to 1000 | > 1000 | > 1000 | 100 to 1000 | > 1000 |
| CN(C)CCOc1ccc(Nc2nccc(-c3sc(N(C)C)nc3-c3cccc(NC(=O)c4c(F)cccc4F)c3)n2)cc1Cl [Example 37, N-{3-[5-{2-[(3-Chloro-4-{[2-(dimethylamino)ethyl]oxy}phenyl)amino]-4-pyrimidinyl}-2-(dimethylamino)-1,3-thiazol-4-yl]phenyl}-2,6-difluorobenzamide] | < 100 | < 100 | 100 to 1000 | 100 to 1000 | 100 to 1000 | 100 to 1000 | 100 to 1000 | 100 to 1000 | > 1000 |
| CN(C)CCOc1ccc(Nc2nccc(-c3sc(N)nc3-c3cccc(NC(=O)c4cc(F)ccc4F)c3)n2)cc1Cl [Example 56] | < 100 | < 100 | < 100 | < 100 | 100 to 1000 | > 1000 | 100 to 1000 | 100 to 1000 | > 1000 |
| CN(C)CCOc1ccc(Nc2nccc(-c3sc(N)nc3-c3ccc(F)c(NC(=O)c4c(F)cccc4F)c3)n2)cc1Cl [Example 67] | < 100 | < 100 | < 100 | < 100 | < 100 | 100 to 1000 | 100 to 1000 | 100 to 1000 | 100 to 1000 |
| CN(C)CCOc1ccc(Nc2nccc(-c3sc(N)nc3-c3cc(NC(=O)c4c(F)cccc4F)ccc3F)n2)cc1Cl [Example 68, N-[3-(2-Amino-5-{2-[(3-chloro-4-{[2-(dimethylamino)ethyl]oxy}phenyl)amino]-4-pyrimidinyl}-1,3-thiazol-4-yl)-4-fluorophenyl]-2,6-difluorobenzamide] | < 100 | < 100 | < 100 | < 100 | 100 to 1000 | 100 to 1000 | 100 to 1000 | 100 to 1000 | 100 to 1000 |

Further lines, results first:

| IC50 (EGFR) [nM] | IC50 (ErbB2) [nM] | IC50 (HN5 tumor cells) [nM] | IC50 (BT474 tumor cells) [nM] | IC50 (Colo205 tumor cells) [nM] | IC50 (SK-MEL-28 tumor cells) [nM] | IC50 (A375P F11s tumor cells) [nM] | IC50 (HT-29 tumor cells) [nM] | IC50 (SK-MEL-3 tumor cells) [nM] | SMILES |
| --- | --- | --- | --- | --- | --- | --- | --- | --- | --- |
| < 100 | < 100 | 100 to 1000 | < 100 | 100 to 1000 | 100 to 1000 | 100 to 1000 | 100 to 1000 | 100 to 1000 | O=C(Nc1cccc(-c2nc(NC3CC3)sc2-c2ccnc(Nc3ccc(OCCN4CCCC4)c(F)c3)n2)c1)c1c(F)cccc1F [Example 33, N-[3-(2-(Cyclopropylamino)-5-{2-[(3-fluoro-4-{[2-(1-pyrrolidinyl)ethyl]oxy}phenyl)amino]-4-pyrimidinyl}-1,3-thiazol-4-yl)phenyl]-2,6-difluorobenzamide] |
| < 100 | < 100 | < 100 | < 100 | 100 to 1000 | 100 to 1000 | 100 to 1000 | 100 to 1000 | 100 to 1000 | CC(=O)Nc1nc(-c2cccc(NC(=O)c3c(F)cccc3F)c2)c(-c2ccnc(Nc3cccc(CN4CCCC4)c3)n2)s1 [Example 34, N-{3-[2-(Acetylamino)-5-(2-{[3-(1-pyrrolidinylmethyl)phenyl]amino}-4-pyrimidinyl)-1,3-thiazol-4-yl]phenyl}-2,6-difluorobenzamide] |
| < 100 | < 100 | < 100 | 100 to 1000 | 100 to 1000 | 100 to 1000 | 100 to 1000 | 100 to 1000 | 100 to 1000 | CN1CCc2ccc(Nc3nccc(-c4sc(N(C)C)nc4-c4cccc(NC(=O)c5c(F)cccc5F)c4)n3)cc2C1 [Example 38] |
| < 100 | < 100 | 100 to 1000 | < 100 | 100 to 1000 | > 1000 | 100 to 1000 | 100 to 1000 | 100 to 1000 | CN(C)c1nc(-c2cccc(NC(=O)c3c(F)cccc3F)c2)c(-c2ccnc(Nc3cccc(CN4CCCC4)c3)n2)s1 [Example 39, N-{3-[2-(Dimethylamino)-5-(2-{[3-(1-pyrrolidinylmethyl)phenyl]amino}-4-pyrimidinyl)-1,3-thiazol-4-yl]phenyl}-2,6-difluorobenzamide] |
| < 100 | < 100 | 100 to 1000 | 100 to 1000 | 100 to 1000 | 100 to 1000 | 100 to 1000 | 100 to 1000 | 100 to 1000 | CN(C)c1nc(-c2cccc(NC(=O)c3c(F)cccc3F)c2)c(-c2ccnc(Nc3ccc(OCCN4CCCC4)c(Cl)c3)n2)s1 [Example 40, N-{3-[5-{2-[(3-Chloro-4-{[2-(1-pyrrolidinyl)ethyl]oxy}phenyl)amino]-4-pyrimidinyl}-2-(dimethylamino)-1,3-thiazol-4-yl]phenyl}-2,6-difluorobenzamide] |
| < 100 | < 100 | 100 to 1000 | 100 to 1000 | 100 to 1000 | 100 to 1000 | > 1000 | 100 to 1000 | > 1000 | CN1CCc2ccc(Nc3nccc(-c4sc(N5CCCC5)nc4-c4cccc(NC(=O)c5c(F)cccc5F)c4)n3)cc2C1 [Example 44, 2,6-Difluoro-N-{3-[5-{2-[(2-methyl-1,2,3,4-tetrahydro-7-isoquinolinyl)amino]-4-pyrimidinyl}-2-(1-pyrrolidinyl)-1,3-thiazol-4-yl]phenyl}benzamide] |
| < 100 | < 100 | 100 to 1000 | 100 to 1000 | 100 to 1000 | > 1000 | 100 to 1000 | 100 to 1000 | 100 to 1000 | CN(C)CCOc1ccc(Nc2nccc(-c3sc(N4CCN(C)CC4)nc3-c3cccc(NC(=O)c4c(F)cccc4F)c3)n2)cc1Cl [Example 45, N-{3-[5-{2-[(3-Chloro-4-{[2-(dimethylamino)ethyl]oxy}phenyl)amino]-4-pyrimidinyl}-2-(4-methyl-1-piperazinyl)-1,3-thiazol-4-yl]phenyl}-2,6-difluorobenzamide] |
